The source of these data is US9902725B2, “Heterocyclic derivatives as RORgamma modulators” (GENFIT, priority 2014, dated 2018).

The target of test [1] is T1, human RORγt (Homo sapiens, UniProt P51449).
T1 sequence (P51449 1-497 isoform P51449-2): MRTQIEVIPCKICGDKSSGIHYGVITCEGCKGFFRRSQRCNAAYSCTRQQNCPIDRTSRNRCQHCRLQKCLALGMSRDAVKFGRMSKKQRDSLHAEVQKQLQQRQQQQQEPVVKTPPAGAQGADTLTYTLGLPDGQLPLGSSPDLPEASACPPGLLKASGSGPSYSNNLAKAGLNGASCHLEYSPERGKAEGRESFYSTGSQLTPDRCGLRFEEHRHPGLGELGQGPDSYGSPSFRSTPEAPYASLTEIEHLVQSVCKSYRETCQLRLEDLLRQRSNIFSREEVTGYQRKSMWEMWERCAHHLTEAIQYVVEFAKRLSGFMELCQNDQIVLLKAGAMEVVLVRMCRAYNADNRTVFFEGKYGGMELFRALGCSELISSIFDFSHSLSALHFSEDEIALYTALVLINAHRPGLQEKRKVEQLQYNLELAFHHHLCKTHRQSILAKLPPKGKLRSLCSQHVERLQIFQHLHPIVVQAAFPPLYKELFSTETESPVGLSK
The test can be described thus: RORE luciferase/RORγt transactivation assay. As to conditions: COS-7 cells transfected with IL-17 promoter luciferase reporter and RORγt plasmid, 20 h. Further details: expressed in transfected cells. In kind it is cell-based. The text has this: It is well known that RORγ binds to a conserved non-coding sequence (CNS) enhancer element in the IL-17 promoter. Accordingly, we have used in this assay a luciferase reporter gene construct that contains the human IL-17 promoter fragment with RORγ-specific CNS enhancer element and a RORγt overexpressing plasmid, to indirectly assess the effect of compounds on RORγ activity. Inhibition of RORγ activity by test compounds will result in a decrease in luciferase activity in COS-7 cells transfected with the reporter construct.
Monkey Kidney COS-7 cell line are maintained in a standard culture medium Dulbecco's modified Eagle's minimal (DMEM) medium supplemented with 10% fetal calf serum, 1% sodium pyruvate, 1% essential amino acids and 1% antibiotics at 37° C. in a humidified atmosphere of 5% CO2 and 95% air. Culture medium was changed every 2 days.
The 4.3 Kb human IL-17 promoter containing the RORγ-specific CNS enhancer element was PCR amplified from human genomic DNA and cloned into a pGL3-TKLuc2Cp reporter plasmid. To overexpress RORγt, the full-length cDNA of human RORγt (identical to published sequence NM 001001523) was cloned without any restriction into pcdna3.1DV5-His-topo to generate the RORγt overexpression plasmid “RORγt_FL_h_pcDNA3.1DV5-His-TOPO_1”.
The luciferase reporter plasmid and the RORγt overexpression plasmid were transfected into COS-7 cell line using 4 μLJetPEITM/μg of DNA. Briefly, 150 ng of DNA (ration ½ between RORE-Tk Luc2Cp and cDNA RORγt or the empty vector for the negative control) was served to transfect adherent COS-7 cells in a […] culture flask, in complete medium (see cos-7 cell line culture). Cells were incubated for 24 hours in a humidified atmosphere of 5% CO2 and 95% air
Cells were then detached (using trypsin) and washed by centrifugation at 300 g for 10 minutes. Cell pellet was resuspended in serum free/phenol red free DMEM and seeded in 384 well plates at a density of 10000 cells/well and then incubated for 4 h at 37° C.
Compounds were dissolved in 100% DMSO to obtain 10 mM stock solutions. For each compound, test concentrations were diluted in serum free/phenol red free DMEM using the Genesis Freedom 200™ (TECAN) and added to the cells to obtain a 0.3% DMSO final concentration (in a final volume of 40 μL per well). T091317 was used as reference compound. Cells were incubated in presence of compounds for an additional 20 h at 37° C. in a humidified atmosphere of 5% CO2 and 95% air
The luciferase activity was then measured with 40 μL/well steady-Glo Luciferase assay system (Promega, Madison, Wis.) and after incubation at room temperature for 30 minutes. The luminescence was estimated using the Ultra384 reader (TECAN). Data were collected and analyzed using GraphPad Prism software (GraphPad Software V5.02, San Diego Calif. USA). IC50 in μM and Emax in % were reported for each compound.
(A reporter such as luciferase makes a cellular process visible.)

In test [2] the target is T2, RORγt ligand-binding domain (RORγt-LBD) (Homo sapiens, UniProt P51449).
T2 construct: 20 nM recombinantly expressed RORγ-LBD fused to GST
T2 sequence (P51449 269-508 limits assumed): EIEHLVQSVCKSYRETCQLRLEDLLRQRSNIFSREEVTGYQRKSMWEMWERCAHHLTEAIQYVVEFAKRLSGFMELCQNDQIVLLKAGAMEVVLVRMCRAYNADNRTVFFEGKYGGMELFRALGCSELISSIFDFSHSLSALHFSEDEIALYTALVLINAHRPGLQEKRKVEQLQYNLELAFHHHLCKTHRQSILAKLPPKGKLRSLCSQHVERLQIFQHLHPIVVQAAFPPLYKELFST
The test can be described thus: Time-resolved FRET (TR-FRET) RORγt coactivator assay. The class given is biochemical. As to conditions: GST-RORγ-LBD, biotinylated RIP140 peptide, coactivator displacement. On the technique in general: In TR-FRET formats the signal depends on donor and acceptor labels being close together.

Test [3] deals with T1, human RORγt. The test can be described thus: IL-17 secretion from EL4 murine lymphoma overexpressing human RORγt. In kind it is cell-based. Further details: expressed in transfected cells; host or cells: EL-4 murine lymphoma. The conditions noted are these: IL-17 secretion inhibition, PMA and ionomycin stimulation, 24 h. In a few lines: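 EL4 murine lymphoma cells electroporated with hRORγt plasmid, seeded 150000 cells/well, pretreated with compound, then stimulated with PMA (10 ng/mL) and ionomycin (1 μM final) with compound for a further 24 h at 37° C. IL-17 in supernatant measured by HTRF or ELISA.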

Some results are limits rather than exact numbers.

As for `Cc1ccc(C(NC(=O)Cc2ccc3[nH]cc(CCC(=O)O)c3c2)c2ccccc2)c(Cl)c1` (centres unmarked) [Cpd. 7, 3-[5-({[(2-chloro-4-methylphenyl)(phenyl)methyl]carbamoyl}methyl)-1H-indol-3-yl]propanoic acid], the IC50 at human RORγt [1] is 1000 to 10000 nM; in test [2] it was < 1000 nM.
For `Cc1ccc(C(NC(=O)Cc2ccc3[nH]cc(CCC(=O)O)c3c2)c2ccccc2)c(Br)c1` (centres unmarked) [Cpd. 9, 3-[5-({[(2-bromo-4-methylphenyl)(phenyl)methyl]carbamoyl}methyl)-1H-indol-3-yl]propanoic acid] the same measures were 1000 to 10000 nM and < 1000 nM.
`Cc1ccc(C(NC(=O)Cc2ccc3[nH]cc(CCC(=O)O)c3c2)c2ccccc2)c(N2CCCC2)n1` (centres unmarked) [Cpd. 15, 3-{5-[({[6-methyl-2-(pyrrolidin-1-yl)pyridin-3-yl](phenyl)methyl}carbamoyl)methyl]-1H-indol-3-yl}propanoic acid]: the IC50 was 10000 to 30000 nM on human RORγt [3], 1000 to 10000 nM on human RORγt [1] and < 1000 nM in test [2].
As for `Cc1ccc(C(NC(=O)Cc2ccc3[nH]cc(CCC(=O)O)c3c2)c2ccccc2)c(F)c1` (centres unmarked) [Cpd. 17, 3-[5-({[(2-fluoro-4-methylphenyl)(phenyl)methyl]carbamoyl}methyl)-1H-indol-3-yl]propanoic acid], the values for the IC50 (against human RORγt [1]; in test [2]) were > 10000 nM and 1000 to 10000 nM, respectively.
On the same counts, the results for `Cc1ccc(F)c(C(NC(=O)Cc2ccc3[nH]cc(CCC(=O)O)c3c2)c2ccccc2)c1` (centres unmarked) [Cpd. 19, 3-[5-({[(2-fluoro-5-methylphenyl)(phenyl)methyl]carbamoyl}methyl)-1H-indol-3-yl]propanoic acid] are > 10000 nM and 1000 to 10000 nM.
For `Cc1ccc(C(NC(=O)Cc2ccc3[nH]cc(CCC(=O)O)c3c2)c2ccccn2)c(C)c1` (centres unmarked) [Cpd. 21, 3-[5-({[(2,4-dimethylphenyl)(pyridin-2-yl)methyl]carbamoyl}methyl)-1H-indol-3-yl]propanoic acid] the same measures were > 10000 nM and < 1000 nM.
For `O=C(O)Cc1c[nH]c2ccc(CC(=O)NC(c3ccccc3)c3ccccc3N3CCCCC3)cc12` (centres unmarked) [Cpd. 39, 2-{5-[({phenyl[2-(piperidin-1-yl)phenyl]methyl}carbamoyl)methyl]-1H-indol-3-yl}acetic acid] the same measures were 1000 to 10000 nM and 1000 to 10000 nM.
Take `Cc1ccc(C(NC(=O)Cc2ccc3[nH]cc(CCC(=O)O)c3c2)c2cccnc2)c(C)c1` (centres unmarked) [compound 27, 3-[5-({[(2,4-dimethylphenyl)(pyridin-3-yl)methyl]carbamoyl}methyl)-1H-indol-3-yl]propanoic acid]: the IC50 on human RORγt [1] is > 10000 nM; in test [2], 1000 to 10000 nM.
As to `Cc1ccc(C(NC(=O)Cc2ccc3[nH]cc(CCC(=O)O)c3c2)c2ccccc2)c2ncccc12` (centres unmarked) [compound 31, 3-[5-({[(5-methylquinolin-8-yl)(phenyl)methyl]carbamoyl}methyl)-1H-indol-3-yl]propanoic acid], the IC50 is > 10000 nM against human RORγt [1] and < 1000 nM in test [2].
On the same counts, the results for `Cc1cc(Cl)ccc1C(NC(=O)Cc1ccc2[nH]cc(CCC(=O)O)c2c1)c1ccccc1` (centres unmarked) [compound 33, 3-[5-({[(4-chloro-2-methylphenyl)(phenyl)methyl]carbamoyl}methyl)-1H-indol-3-yl]propanoic acid] are 1000 to 10000 nM and < 1000 nM.
With `O=C(O)CCc1c[nH]c2ccc(CC(=O)NC(c3ccccc3)c3ccccc3N3CCCCCC3)cc12` (centres unmarked) [compound 35, 3-{5-[({[2-(azepan-1-yl)phenyl](phenyl)methyl}carbamoyl)methyl]-1H-indol-3-yl}propanoic acid], the IC50 at human RORγt [3] is 1000 to 10000 nM; at human RORγt [1], < 1000 nM; in test [2], < 1000 nM.
Turning to `Cc1ccc(C(NC(=O)Cc2ccc3[nH]cc(CCC(=O)O)c3c2)c2ccccc2)c2ccccc12` (centres unmarked) [compound 37, 3-[5-({[(4-methylnaphthalen-1-yl)(phenyl)methyl]carbamoyl}methyl)-1H-indol-3-yl]propanoic acid], the values for the IC50 (at human RORγt [3]; on human RORγt [1]; in test [2]) were 10000 to 30000 nM, 1000 to 10000 nM and < 1000 nM, respectively.
Regarding `Cc1ccc(C(NC(=O)Cc2ccc3[nH]cc(CCC(=O)O)c3c2)c2ccc(C)o2)c(N2CCCCC2)c1` (centres unmarked) [compound 268, 3-{5-[({[4-methyl-2-(piperidin-1-yl)phenyl](5-methylfuran-2-yl)methyl}carbamoyl)methyl]-1H-indol-3-yl}propanoic acid], the IC50 (against human RORγt [1]; in test [2]) was < 1000 nM each time.

The term IC50 denotes the point on the concentration scale where inhibition reaches its midpoint. A high value points to a need for much substance.
